This passage reports inhibition results from PubChem BioAssay AID720663 (NMMLSC, 2013).

Broadly, the inhibition is the relative decrease from the control value, in per cent.

This test has as its system TALL-104 cells, LAMP-1 externalization, flow cytometry. In words: blockers of surface LAMP-1 appearance in TALL-104 – TALL-104 cells, flow cytometry, CherryPick01, confirmation (AID 720663). Conditions: at 30 µM; active compounds read high.

SMILES strings stand for the structures. The source made the active and inactive calls.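 How the source made its calls: active means inhibition above 50% of lysosomal marker LAMP-1 reaching the cell surface; inactive means inhibition below 50%.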

On to `O=C1CC(Sc2nnnn2-c2ccccc2)C(=O)N1c1cccc(Cl)c1` (stereo not given), for which the inhibition is 89.1%.
Turning to `CC(=O)Nc1ccc2sn(-c3ccccc3)c(=O)c2c1`, the inhibition was 26.4% (inactive).
As for `CCOc1ccc2nc(N(CCCN(C)C)C(=O)c3ccc(S(=O)(=O)N4CCc5ccccc5C4)cc3)sc2c1`, the figure is 100%; as for `COc1cccc(-c2cnc3c(NC(C)=O)cc(-c4ccsc4)cn23)c1`, 53.2%.
As for `CCOc1ccccc1CNC(=O)C1CCN(c2nnc(C)c3c(C)n(-c4ccc(C)cc4)nc23)CC1`, the figure is 99.6%; as for `CC1COCC(C)N1C1=C(Cl)C(=O)c2ccccc2C1=O` (stereo not given), 99.7%.
With `COC(=O)c1c(NC(=O)c2nc3ccccc3s2)sc2c1CC(C)(C)NC2(C)C` the figure was 81.5%; with `O=C(OCc1ccccc1)N(CCCCN(CCCNCc1ccccc1)C(=O)OCc1ccccc1)CCCNCc1ccccc1`, 99.5%; with `CCCCC[C@@H](C)N1C[C@H](COCc2ccccc2)Oc2cc(N3CC[C@@H](N(C)C)C3)ccc2S1(=O)=O`, 93.7%.
Turning to `Cc1ccc(S(=O)(=O)n2ccc3c(OCCOCCNCc4ccc(F)cc4)cccc32)cc1`, the inhibition is 85%.
Take `CCc1ccc2nc(N(CCCN(C)C)C(=O)c3ccc(S(=O)(=O)N4CCc5ccccc5C4)cc3)sc2c1`: the inhibition was 97.7%.
As for `CCCCn1c(=N)n(CC(=O)c2ccc(Br)s2)c2ccccc21`, the figure is 100%.
As for `COc1cc(-c2coc3c(C(=O)NCc4ccc(OC)c(OC)c4)cccc23)ccc1O`, the figure is 29.4% (inactive); as for `CCc1ccc(/C=C2/Sc3ccccc3N(CC(=O)NCCCN3CCOCC3)C2=O)cc1`, 36.6% (inactive); as for `COc1ccc(N2C(=O)CC(Sc3nnc(-c4ccccc4)o3)C2=O)cc1` (stereo not given), 92.9%.
As for `Cc1ccc(-n2nnc3c(=O)oc4ccccc4c32)cc1`, the figure is 98.8%; as for `CC(C)(c1ccccc1)c1ccc(OCC(O)CNC2CCN(Cc3ccccc3)CC2)cc1` (stereo not given), 97.6%; as for `COc1cccc(-c2cnc3c(NC(C)=O)cc(-c4ccccc4OC)cn23)c1`, 56.1%.
Consider `O=C1Nc2ccc(Br)cc2/C1=C/C(=O)c1ccccc1`, for which the inhibition is 39.4% (inactive).
As to `CCc1nc2ccc(C(=O)NC3CCN(Cc4ccccc4)CC3)cn2c1N(C)Cc1cc2ccccc2s1`, the inhibition was 22.5% (inactive).
As for `CCOC(=O)c1c(CSc2ccccc2)n(C)c2cc(Br)c(O)c(CN(C)C)c12`, the figure is 25.5% (inactive); as for `O=C1C=CC(=O)N1N(c1ccccc1)c1ccccc1`, 45.4% (inactive); as for `CCCCC[C@@H](C)N1C[C@@H](COCc2ccccc2)Oc2cc(N3CC[C@@H](N(C)C)C3)ccc2S1(=O)=O`, 95.3%.
With `O=C(Nc1ccc(F)cc1)c1nc(S(=O)(=O)Cc2ccccc2)ncc1Cl` the figure was 98.8%; with `OC(CNCC(c1ccc(Cl)cc1Cl)c1c[nH]c2ccccc12)c1ccccc1` (stereo not given), 35.2% (inactive); with `O=CNc1cc(-c2ccsc2)cn2c(-c3ccccc3)cnc12`, 52.6%.
As for `CN1CCN(CCCNC(=O)c2ccc(/C=C3\Sc4ccccc4N(Cc4ccc(F)cc4)C3=O)cc2)CC1`, the figure is 4.5% (inactive); as for `CN(C)CCCNC(=S)NCC(c1ccc(Cl)cc1Cl)c1c[nH]c2ccccc12` (stereo not given), 24% (inactive); as for `CN(C)CCNC(=O)c1ccc(-c2cn3c(-c4ccc(Oc5ccccc5)cc4)cnc3cn2)cc1`, 66.8%.
Turning to `O=c1c2ccccc2sn1-c1ccccc1`, the inhibition was 79.9%.
As for `CCOc1ccc2[nH]c3c(N4CCc5ccccc5C4)ncnc3c2c1`, the figure is 5.2% (inactive); as for `O=S(=O)(c1ccccc1)c1nnn2c1nc(NC1CCN(Cc3ccccc3)CC1)c1cc(Cl)ccc12`, 98.7%; as for `COc1ccc([N+](=O)[O-])cc1Nc1c2ccccc2nc2ccccc12`, 20.4% (inactive).
With `CCCNC(=O)Cn1sc2nc(C)cc(C)c2c1=O` the figure was 41.7% (inactive).
With `COC(=O)[C@]12CCCCC=C1N(Cc1cccc3ccccc13)C(=O)[C@H](CC(=O)NCc1ccc(OC)c(OC)c1)C2` the figure was 15.9% (inactive); with `Cc1ccc(Nc2nc(NCc3ccco3)c3ccccc3n2)cc1`, 58.7%; with `CCCS(=O)(=O)Nc1ccc(Nc2c3ccccc3nc3ccccc23)c(OC)c1`, 99.7%.
In the case of `CCC(=C(c1ccc(OC)cc1)c1ccc(OC)cc1)c1cn(CC(O)CN2CCN(C)CC2)c2ccccc12` (stereo not given), the inhibition was 14.8% (inactive).
As for `CC(=O)Nc1ccc2c(=O)n(-c3ccccc3)sc2c1`, the figure is 39.8% (inactive); as for `O=C(Cn1sc2ccccc2c1=O)NC12CC3CC(CC(C3)C1)C2`, 50% (inactive).
As for `Fc1ccc(/C=C\c2nccc3c2[nH]c2ccccc23)cc1`, the figure is 98.7%; as for `CCOC(=O)c1c(NC(=O)COc2ccccc2OCC)sc2c1CC(C)(C)NC2(C)C`, 94.7%.
With `Nc1c(C(=O)NCc2ccc(F)cc2)c2nc3ccccc3nc2n1CCCN1CCOCC1` the figure was 58.3%.
On to `O=c1c2ccccc2sn1-c1ccccc1F`, for which the inhibition was 44% (inactive).
As for `O=C(CN1C(=O)/C(=C\c2cccc(Br)c2)Oc2ccccc21)NCCCN1CCOCC1`, the inhibition is 77%.
As for `COc1ccc(-c2cc(NC=O)c3ncc(-c4cccc(OC)c4)n3c2)cc1`, the figure is 82.8%; as for `COc1cccc(NC(=O)Nc2nc(-c3ccc(OC)c(OC)c3)cs2)c1`, 99.6%.
With `N#Cc1c(Nc2ccccc2Cl)s[nH]c1=O` the figure was 95.1%; with `CCCCC[C@@H](C)N1C[C@@H](COCc2ccccc2)Oc2cc(N3CC[C@H](N(C)C)C3)ccc2S1(=O)=O`, 95.1%.
With `CCOC(=O)c1nnc(-c2ccccc2)nc1Sc1ccccc1Cl` the figure was 4.8% (inactive).
For the molecule `COc1cccc(-c2cnc3c(NC=O)cc(-c4ccccc4)cn23)c1`, the inhibition is 38.8% (inactive).
Regarding `COc1ccc(-c2cc(NC=O)c3ncc(-c4ccccc4)n3c2)cc1OC`, the inhibition was 69.9%.
In the case of `O=c1c2ccc(F)cc2sn1-c1ccccc1`, the inhibition is 77.6%.
With `CN1CCN(c2cc(-c3ccccc3)nc3cc(-c4ccc(F)cc4)nn23)CC1` the figure was 99.7%; with `COc1ccccc1CNc1nc(NCc2ccc3occc3c2)c2sccc2n1`, 37.5% (inactive); with `Cc1cc(N2CCN(c3nc(-c4ccc([N+](=O)[O-])cc4)cs3)CC2)c2ccccc2n1`, 99.2%.
With `Cn1sc(=O)c2cc(S(=O)(=O)NC3CC3)ccc21` the figure was 73.2%; with `CCOC(=O)c1cc(-c2csc(Nc3c(C)cc(C)cc3C)n2)on1`, 70.1%.
As for `COc1ccc(-n2sc3ccccc3c2=O)cc1`, the figure is 60.1%; as for `N#Cc1ccc(NC(=O)Nc2ccc(Oc3ccc(NC(=O)Nc4ccc(C#N)cc4)cc3)cc2)cc1`, 40.4% (inactive).
For the molecule `CC(C)CNC(=O)c1c(N)n(Cc2ccc3c(c2)OCO3)c2nc3ccccc3nc12`, the inhibition is 21% (inactive).
Regarding `CCOc1ccc2nc(C)cc(Nc3cccc([N+](=O)[O-])c3)c2c1`, the inhibition was 100%.
For the molecule `O=C(Cn1sc2ccccc2c1=O)Nc1ccc(F)cc1`, the inhibition is 51.7%.
With `COc1ccccc1CNc1nc(NCc2ccc(C(C)C)cc2)c2sccc2n1`, the inhibition was 78.5%.
Regarding `CC1=NOC(=O)/C1=C/c1ccc(-c2ccc(Cl)cc2)o1`, the inhibition is 84.6%.
Regarding `CCCCCCSc1cccc(-c2nc3ccccn3c2NCc2ccccc2)c1`, the inhibition was -0.5% (inactive).
With `CCOc1cc(CNCCc2ccc(S(N)(=O)=O)cc2)ccc1OCc1ccc(Cl)cc1` the figure was 99.8%.
As for `CN(c1ccccc1)S(=O)(=O)c1cccc(C(=O)NCCc2c[nH]c3ccccc23)c1`, the figure is 13.7% (inactive); as for `COC(=O)c1c(NC(=O)c2ccc(C(=O)c3ccccc3)cc2)sc2c1CC(C)(C)NC2(C)C`, 39.6% (inactive); as for `CCN(CC)CCCNc1ccc(-c2nnc(-c3ccc(OCC(C)C)cc3)o2)cn1`, 87.3%.
With `c1ccc(CNc2nc(NCC3CC3)nc3cc(-c4ccccc4)sc23)cc1` the figure was 97.8%; with `CC1(C(=O)OCC(=O)Nc2nc(-c3ccc(F)c(F)c3)cs2)CC1(Cl)Cl` (stereo not given), -10.8% (inactive).
Turning to `Cc1cc(C)c2nc(C)cc(N/N=C/c3ccc(O)cc3)c2c1`, the inhibition is 100%.
With `CC1=C(C)CS(=O)N(S(=O)(=O)c2ccc(Cl)cc2)C1` (stereo not given) the figure was 99.5%; with `Cn1cncc1C#Cc1c(-c2ccc(S(C)(=O)=O)cc2)sc2ccccc12`, 17% (inactive).
